Patent US10577378B2, “EIF4A-inhibiting compounds and methods related thereto” (eFFECTOR Therapeutics, Inc., priority 2015, dated 2020)

Each compound was assayed on MDA-MB-231 human breast cancer cells (assay: Cell proliferation assay (CellTiter-Glo, 72 hours treatment)). Settings: Homo sapiens, MDA-MB-231, 72 h, read-out: MDA-MB-231 cell proliferation assay (IC50).
Type: cell-based
Method in brief: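 IC50 categories: under 100 nM +++, 100–1000 nM ++, above 1000 nM +, derived by sigmoidal curve fitting of CellTiter-Glo luminescence. Cells plated at 2,500 per well, dosed the following day and exposed 72 h at 37 °C versus DMSO control.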

SMILES | IC50 [nM]
COc1cncc2c1[C@]1(O)[C@@H](CN)C[C@@H](c3ccccc3)[C@]1(c1ccc(Br)cc1)O2 (racemic) [172F, Rac-(4bR,5R,7S,7aR)-5-(aminomethyl)-7a-(4-bromophenyl)-4-methoxy-7-phenyl-5,6,7,7a-tetrahydro-4bH-cyclopenta[4,5]furo[2,3-c]pyridin-4b-ol] | < 100

Same assay, conditions: Homo sapiens; MDA-MB-231 cells, 72 hours at 37° C., CellTiter-Glo; read-out: MDA-MB-231 cell proliferation assay (IC50)

SMILES | IC50 [nM]
CN(C)S(=O)(=O)[C@H]1[C@@H](O)[C@@]2(O)c3ncc(Cl)cc3O[C@@]2(c2ccc(C#N)cc2)[C@@H]1c1ccccc1 (racemic) [22F, Rac-(5aR,6S,7R,8S,8aS)-3-chloro-5a-(4-cyanophenyl)-8,8a-dihydroxy-N,N-dimethyl-6-phenyl-5a,7,8,8a-tetrahydro-6H-cyclopenta[4,5]furo[3,2-b]pyridine-7-sulfonamide] | 100 to 1000
CN(C)C[C@@H]1[C@@H](O)[C@@]2(O)c3ncc(Cl)cc3O[C@@]2(c2ccc(C(F)F)cc2)[C@@H]1c1ccccc1 (single isomer, unassigned) [108F] | 100 to 1000
CN(C)C(=O)[C@H]1[C@@H](O)[C@@]2(O)c3ncc(C#N)cc3O[C@@]2(c2ccc(C#N)cc2)[C@@H]1c1ccccc1 (single isomer, unassigned) [2F] | 100 to 1000
COc1cncc2c1[C@]1(O)[C@H](O)[C@H](C(=O)N3CCN(C)CC3)[C@@H](c3ccccc3)[C@]1(c1ccc(C(F)(F)F)cc1)O2 (racemic) [283F, rac-((4bS,5R,6R,7S,7aR)-4b,5-dihydroxy-4-methoxy-7-phenyl-7a-(4-(trifluoromethyl)phenyl)-4b,6,7,7a-tetrahydro-5H-cyclopenta[4,5]furo[2,3-c]pyridin-6-yl)(4-methylpiperazin-1-yl)methanone] | 100 to 1000
COc1cncc2c1[C@]1(O)[C@H](O)[C@H](CCN(C)C)[C@@H](c3ccccc3)[C@]1(c1ccc(C#N)cc1)O2 (racemic) [276F, Rac-4-((4bS,5R,6R,7S,7aR)-6-(2-(dimethylamino)ethyl)-4b,5-dihydroxy-4-methoxy-7-phenyl-4b,5,6,7-tetrahydro-7aH-cyclopenta[4,5]furo[2,3-c]pyridin-7a-yl)benzonitrile] | 100 to 1000
NC(=S)[C@H]1[C@@H](O)[C@@]2(O)c3ncc(Cl)cc3O[C@@]2(c2ccc(Br)cc2)[C@@H]1c1ccccc1 (racemic) [28F, Rac-(5aR,6S,7R,8R,8aS)-5a-(4-bromophenyl)-3-chloro-8,8a-dihydroxy-6-phenyl-5a,7,8,8a-tetrahydro-6H-cyclopenta[4,5]furo[3,2-b]pyridine-7-carbothioamide] | 100 to 1000
CN(C)C(=O)[C@H]1C(=O)[C@@]2(O)c3ncc(Cl)cc3O[C@@]2(c2ccc(C#N)cc2)[C@@H]1c1ccccc1 (racemic) [32F, Rac-(5aR,6S,7R,8aR)-3-chloro-5a-(4-cyanophenyl)-8a-hydroxy-N,N-dimethyl-8-oxo-6-phenyl-5a,7,8,8a-tetrahydro-6H-cyclopenta[4,5]furo[3,2-b]pyridine-7-carboxamide] | > 1000
COc1cncc2c1[C@]1(O)[C@H](O)[C@H](CNC3CC3)[C@@H](c3ccccc3)[C@]1(c1ccc(C#N)cc1)O2 (racemic) [244F, Rac-4-((4bS,5R,6S,7S,7aR)-6-((cyclopropylamino)methyl)-4b,5-dihydroxy-4-methoxy-7-phenyl-4b,5,6,7-tetrahydro-7aH-cyclopenta[4,5]furo[2,3-c]pyridin-7a-yl)benzonitrile] | < 100
COc1nc(Cl)cc2c1[C@]1(O)[C@H](O)[C@H](CN3CCC(F)CC3)[C@@H](c3ccccc3)[C@]1(c1ccc(C#N)cc1)O2 (racemic) [156Fb, Rac-4-((5aR,6S,7S,8R,8aS)-3-chloro-7-((4-fluoropiperidin-1-yl)methyl)-8,8a-dihydroxy-1-methoxy-6-phenyl-6,7,8,8a-tetrahydro-5aH-cyclopenta[4,5]furo[3,2-c]pyridin-5a-yl)benzonitrile] | < 100
Cc1ccc(S(=O)(=O)NN=C2C[C@@H](c3ccccc3)[C@]3(c4ccc(Br)cc4)Oc4cc(Cl)cnc4[C@]23O)cc1 (racemic) [132F, Rac-N′-((5aR,6S,8aS)-5a-(4-bromophenyl)-3-chloro-8a-hydroxy-6-phenyl-5a,6,7,8a-tetrahydro-8H-cyclopenta[4,5]furo[3,2-b]pyridin-8-ylidene)-4-methylbenzenesulfonohydrazide] | > 1000
COc1cncc2c1[C@]1(O)[C@H](O)[C@H](C(=O)NC3COC3)[C@@H](c3ccccc3)[C@]1(c1ccc(Br)cc1)O2 (racemic) [239F, Rac-(4bS,5R,6R,7S,7aR)-7a-(4-bromophenyl)-4b,5-dihydroxy-4-methoxy-N-(oxetan-3-yl)-7-phenyl-4b,6,7,7a-tetrahydro-5H-cyclopenta[4,5]furo[2,3-c]pyridine-6-carboxamide] | < 100
CNC[C@H]1[C@@H](O)[C@@]2(O)c3ncc(Cl)cc3O[C@@]2(c2ccc(C#N)cc2)[C@@H]1c1ccccc1 (racemic) [39F, Rac-4-((5aR,6S,7S,8R,8aS)-3-chloro-8,8a-dihydroxy-7-((methylamino)methyl)-6-phenyl-6,7,8,8a-tetrahydro-5aH-cyclopenta[4,5]furo[3,2-b]pyridin-5a-yl)benzonitrile] | 100 to 1000
COc1nc(Cl)cc2c1[C@]1(O)[C@H](O)[C@H](CN3CCC34CC4(F)F)[C@@H](c3ccccc3)[C@]1(c1ccc(C#N)cc1)O2 (mixture of isomers) [222F, Rac-4-((5aR,6S,7S,8R,8aS)-3-chloro-7-((1,1-difluoro-4-azaspiro[2.3]hexan-4-yl)methyl)-8,8a-dihydroxy-1-methoxy-6-phenyl-6,7,8,8a-tetrahydro-5aH-cyclopenta[4,5]furo[3,2-c]pyridin-5a-yl)benzonitrile] | < 100
COc1cncc2c1[C@]1(O)[C@H](O)[C@H](CN(C)C)[C@@H](c3ccccc3)[C@]1(c1ccc(C(F)F)cc1)O2 (single isomer, unassigned) [106F] | 100 to 1000
CNC(=O)[C@H]1[C@@H](O)[C@@]2(O)c3ncc(Cl)cc3O[C@@]2(c2ccc(C#N)cc2)[C@@H]1c1ccccc1 (single isomer, unassigned) [20F] | < 100
COc1cncc2c1[C@]1(O)[C@H](O)[C@H](CN(C)CC(F)(F)F)[C@@H](c3ccccc3)[C@]1(c1ccc(C#N)cc1)O2 (single isomer, unassigned) [233F] | 100 to 1000
C#CC1(O)C(C(=O)N(C)C)[C@@H](c2ccccc2)[C@]2(c3ccc(Br)cc3)Oc3cc(Cl)cnc3[C@]12O (mixture of isomers) [190F, rac-(5aR,6S,8aS)-5a-(4-bromophenyl)-3-chloro-8-ethynyl-8,8a-dihydroxy-N,N-dimethyl-6-phenyl-5a,7,8,8a-tetrahydro-6H-cyclopenta[4,5]furo[3,2-b]pyridine-7-carboxamide] | 100 to 1000
COc1cncc2c1[C@]1(O)[C@H](O)[C@H](CN3[C@@H]4COC[C@H]3C4)[C@@H](c3ccccc3)[C@]1(c1ccc(C#N)cc1)O2 (racemic) [267F, Rac-4-((4bS,5R,6S,7S,7aR)-6-(((1R,5S)-3-oxa-6-azabicyclo[3.1.1]heptan-6-yl)methyl)-4b,5-dihydroxy-4-methoxy-7-phenyl-4b,5,6,7-tetrahydro-7aH-cyclopenta[4,5]furo[2,3-c]pyridin-7a-yl)benzonitrile] | 100 to 1000
COc1ccc([C@@]23Oc4cc(OC)ccc4[C@]2(N=[N+]=[N-])[C@H](O)[C@H](C(=O)N(C)C)[C@H]3c2ccccc2)cc1 (racemic) [42F, Rac-(1R,2R,3S,3aR,8bS)-8b-azido-1-hydroxy-6-methoxy-3a-(4-methoxyphenyl)-N,N-dimethyl-3-phenyl-2,3-dihydro-1H-cyclopenta[b]benzofuran-2-carboxamide] | 100 to 1000
N#Cc1ccc([C@@]23Oc4cc(Cl)cnc4[C@]2(O)[C@H](O)[C@H](Sc2ccccn2)[C@H]3c2ccccc2)cc1 (racemic) [189F, Rac-4-((5aR,6S,7R,8S,8aS)-3-chloro-8,8a-dihydroxy-6-phenyl-7-(pyridin-2-ylthio)-6,7,8,8a-tetrahydro-5aH-cyclopenta[4,5]furo[3,2-b]pyridin-5a-yl)benzonitrile] | 100 to 1000
COCCNC(=O)[C@H]1[C@@H](O)[C@@]2(O)c3c(OC)cncc3O[C@@]2(c2ccc(Br)cc2)[C@@H]1c1ccccc1 (racemic) [262F, Rac-(4bS,5R,6R,7S,7aR)-7a-(4-bromophenyl)-4b,5-dihydroxy-4-methoxy-N-(2-methoxyethyl)-7-phenyl-4b,6,7,7a-tetrahydro-5H-cyclopenta[4,5]furo[2,3-c]pyridine-6-carboxamide] | < 100
O[C@@H]1[C@H](Sc2ccccn2)[C@@H](c2ccccc2)[C@]2(c3ccc(Br)cc3)Oc3cc(Cl)cnc3[C@]12O (racemic) [160Fa, Rac-(5aR,6S,7R,8S,8aS)-5a-(4-bromophenyl)-3-chloro-6-phenyl-7-(pyridin-2-ylthio)-5a,6,7,8-tetrahydro-8aH-cyclopenta[4,5]furo[3,2-b]pyridine-8,8a-diol] | 100 to 1000
COc1ccc([C@@]23Oc4cc(OC)ccc4[C@]2(NC(C)=O)[C@H](O)[C@H](C(=O)N(C)C)[C@H]3c2ccccc2)cc1 (racemic) [45F, Rac-(1R,2R,3S,3aR,8bS)-8b-acetamido-1-hydroxy-6-methoxy-3a-(4-methoxyphenyl)-N,N-dimethyl-3-phenyl-2,3,3a,8b-tetrahydro-1H-cyclopenta[b]benzofuran-2-carboxamide] | > 1000
O[C@]12c3ncc(Cl)cc3O[C@@]1(c1ccc(Br)cc1)[C@H](c1ccccc1)[C@H]1CO[C@H]12 (racemic) [60F, Rac-(2aS,3S,3aR,8bS,8cR)-3a-(4-bromophenyl)-6-chloro-3-phenyl-2a,3,3a,8c-tetrahydrooxeto[3″,2″:4′,5′]cyclopenta[1′,2′:4,5]furo[3,2-b]pyridin-8b(2H)-ol] | > 1000
COc1cncc2c1[C@]1(O)[C@@H](CNCC(F)F)[C@H](CO)[C@@H](c3ccccc3)[C@]1(c1ccc(Br)cc1)O2 (racemic) [181F, Rac-(4bR,5R,6R,7S,7aR)-7a-(4-bromophenyl)-5-(((2,2-difluoroethyl)amino)methyl)-6-(hydroxymethyl)-4-methoxy-7-phenyl-5,6,7,7a-tetrahydro-4bH-cyclopenta[4,5]furo[2,3-c]pyridin-4b-ol] | < 100
